Test results reported in US20080287426A1, “Method of Inducing Resistance to Harmful Fungi” (priority 2005, published 2008).

Test system: S. tritici
Assay: S. tritici infection of wheat seedlings after spraying first leaves (induced resistance)
Type: in vivo, Septoria tritici
Procedure: Wheat seedlings at the 2 leaf stage were used in the study. Plants were grown singly in pots and were split into two batches. First leaves were sprayed with pyraclostrobin at the recommended rate (first leaves of controls were sprayed with distilled water) and the plants to be used for disease assessment were inoculated with S. tritici once leaves had dried. Both first and second leaves were inoculated by spraying with a spore suspension of 1×10^5 spores/ml of distilled water containing a drop of Tween 20. Immediately after inoculation, pots were placed in water-saturated trays and covered with clear polyethene bags for 48 h. Thereafter plants were grown at 18° C. with 12 h/12 h light/dark alternation. Infection intensity was assessed 18 days after inoculation by estimating the % leaf area covered by symptoms.

## pyraclostrobin
After 18 days, compared to non treated controls
  reduced infection on first leaves: 65%
After 18 days, compared to non treated controls, only first leaves sprayed
  reduced infection on second leaves: 61%
Wheat seedlings, first leaves sprayed at the recommended rate, 18 days after inoculation, means ±SE of 10 replicates, pyraclostrobin-resistant isolate
  Infection (% leaf area showing symptoms) First leaf: 17 ± 2.3 % leaf area showing symptoms
Wheat seedlings, isolate resistant to pyraclostrobin
  reduces S. tritici infection of first and second leaves: > 60%
Wheat seedlings, only first leaves sprayed at the recommended rate, 18 days after inoculation, means ±SE of 10 replicates, pyraclostrobin-resistant isolate
  Infection (% leaf area showing symptoms) Second leaf: 16 ± 1.4 % leaf area showing symptoms
